Test results as given in US10801035B2, “Plants having increased tolerance to herbicides” (BASF SE, priority 2011, dated 2020).

Tests used:
[1] = molecular target: T1, Hordeum HPPD variant L353M, P321R, V212I, L334E (Hordeum vulgare, UniProt O48604, L334E/L353M/P321R/V212I); assay: HPPD activity assay, Hordeum HPPD mutant L353M, P321R, V212I, L334E; type: biochemical; conditions: normalized on wildtype
T1 construct: His6; made in house; host or cells: E. coli BL21 (DE3)
Protocol: (§1) HPPD produces homogentisic acid and CO2 from 4-hydroxyphenylpyruvate (4-HPP) and O2. The activity assay for HPPD is based on the analysis of homogentisic acid by reversed phase HPLC.
(§2) The assay mixture can contain 150 mM potassium phosphate buffer pH 7.0, 50 mM L-ascorbic acid, 1 μM FeSO4 and 7 μg of purified enzyme in a total volume of 1 ml. Inhibitors are dissolved in DMSO (dimethylsulfoxide) to a concentration of 20 mM or 0.5 mM, respectively. From this stock solution serial five-fold dilutions are prepared in DMSO, which are used in the assay. The respective inhibitor solution accounts for 1% of the assay volume. Thus, final inhibitor concentrations range from 200 μM to 2.5 nM or from 5 μM to 63 pM, respectively. After a preincubation of 30 min the reaction is started by adding 4-HPP to a final concentration of 0.1 mM. […]
(§3) Inhibitors are dissolved in DMSO (dimethylsulfoxide) to a concentration of 0.5 mM. […] IC50 values are calculated using non-linear regression.
(§4) Purified, mutant HPPD enzymes are obtained by the methods described above. […] Apparent michaelis constants (Km) and maximal reaction velocities (Vmax) are calculated by non-linear regression with the software GraphPad Prism 5 (GraphPad Software, La Jolla, USA) using a substrate inhibition model. […] Weighted means (by standard error) of Km and […] values are calculated from at least three independent experiments. […]

[2] = tested on: Arabidopsis wildtype control plants; assay: Arabidopsis growth inhibition in 48-well plates, wildtype control; type: in vivo, Arabidopsis thaliana; conditions: plant growth IC50 divided by that of wildtype plants
Protocol: (§5) Depending on the species, the plants are kept at 10-25° C. or 20-35° C. The test period extends over 3 weeks. During this time, the plants are tended and their response to the individual treatments is evaluated. Herbicide injury evaluations are taken at 2 and 3 weeks after treatment. Plant injury is rated on a scale of 0 to 9, 0 being no injury and 9 being complete death. Tolerance to coumarone-derivative herbicides can also be assessed in Arabidopsis. In this case transgenic Arabidopsis thaliana plants are assayed for improved tolerance to coumarone-derivative herbicides in 48-well plates. Seeds are surface sterilized by stirring for 5 min in ethanol+water (70+30 by volume), rinsing one time with ethanol+water (70+30 by volume) and two times with a sterile, deionized water. The seeds are resuspended in 0.1% agar dissolved in water (w/v). Four to five seeds per well are plated on solid nutrient medium consisting of half-strength Murashige Skoog nutrient solution, pH 5.8 (Murashige and Skoog (1962) Physiologia Plantarum 15: 473-497). […] Seven to ten days after seeding growth inhibition is evaluated by comparison to wild type plants. Tolerance factor is calculated by dividing the plant growth IC50 value of transgenic plants containing a HPPD and/or HST sequence by that of wildtype plants. […]

[3] = tested on: transgenic Arabidopsis plants overexpressing Barley HPPD (Seq ID: 2); assay: Arabidopsis growth inhibition in 48-well plates, line overexpressing Barley HPPD; type: in vivo, Arabidopsis thaliana; conditions: Barley HPPD (Seq ID: 2) overexpression line; plant growth IC50 of transgenic divided by wildtype
Protocol: as §5

[4] = tested on: Rhodococcus HPPD1; assay: HPPD activity assay, Rhodococcus HPPD1; type: biochemical; conditions: normalized on Hordeum HPPD
Protocol: as §1
The assay mixture can contain 150 mM potassium phosphate buffer pH 7.0, 50 mM L-ascorbic acid, 1 μM FeSO4 and 7 μg of purified enzyme in a total volume of 1 ml. Inhibitors are dissolved in DMSO (dimethylsulfoxide) to a concentration of 20 mM or 0.5 mM, respectively. From this stock solution serial five-fold dilutions are prepared in DMSO, which are used in the assay. The respective inhibitor solution accounts for 1% of the assay volume. […]
Activities are normalized by setting the uninhibited enzyme activity to 100%. […] values are calculated using non-linear regression. […]
as §3
Using methods which are described in the above examples or well known in the art, purified, recombinant wildtype HPPD enzymes are characterized with respect to their kinetic properties and sensitivity towards HPPD inhibiting herbicides. Apparent michaelis constants (Km) and maximal reaction velocities (Vmax) are calculated by non-linear regression with the software GraphPad Prism 5 (GraphPad Software, La Jolla, USA) using a substrate inhibition model. […]

[5] = molecular target: T2, Hordeum HPPD variant V212L (Hordeum vulgare, UniProt O48604, A164G/R146V/R147D/R148G/V212L); assay: HPPD activity assay, Hordeum HPPD mutant V212L; type: biochemical; conditions: normalized on wildtype
T2 construct: His6; made in house; host or cells: E. coli BL21 (DE3)
T2 sequence (O48604 whole entry R146V/R147D/R148G/A164G/V212L): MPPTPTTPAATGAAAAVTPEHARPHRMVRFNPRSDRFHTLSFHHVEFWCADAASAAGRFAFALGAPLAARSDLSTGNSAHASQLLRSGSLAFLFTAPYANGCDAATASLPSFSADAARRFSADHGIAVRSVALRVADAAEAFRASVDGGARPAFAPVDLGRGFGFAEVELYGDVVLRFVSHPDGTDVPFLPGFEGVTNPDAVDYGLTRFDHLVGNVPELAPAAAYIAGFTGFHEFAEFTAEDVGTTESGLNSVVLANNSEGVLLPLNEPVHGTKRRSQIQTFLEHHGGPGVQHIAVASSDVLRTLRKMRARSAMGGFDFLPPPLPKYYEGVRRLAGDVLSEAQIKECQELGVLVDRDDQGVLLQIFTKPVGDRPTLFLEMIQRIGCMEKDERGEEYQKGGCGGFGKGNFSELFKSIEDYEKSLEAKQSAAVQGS
Protocol: as §1, §2, §3, §4

[6] = molecular target: T3, Hordeum HPPD variant L353M, P321R, L320N (Hordeum vulgare, UniProt O48604, L320N/L353M/P321R); assay: HPPD activity assay, Hordeum HPPD mutant L353M, P321R, L320N; type: biochemical; conditions: normalized on wildtype
T3 construct: His6; made in house; host or cells: E. coli BL21 (DE3)
T3 sequence (O48604 whole entry R146V/R147D/R148G/A164G/L320N/P321R/L353M): as the sequence (O48604 whole entry R146V/R147D/R148G/A164G/V212L) above, with L212V, L320N, P321R, L353M counted along it
Protocol: as §1, §2, §3, §4

T1 sequence (O48604 whole entry R146V/R147D/R148G/A164G/V212I/P321R/L334E/L353M): as the sequence (O48604 whole entry R146V/R147D/R148G/A164G/V212L) above, with L212I, P321R, L334E, L353M counted along it

| SMILES | Normalized tolerance index (TI) [1] | Tolerance factor [2] | Tolerance factor [3] | Normalized tolerance index (TI) [4] | Normalized tolerance index (TI) [5] | Normalized tolerance index (TI) [6] |
| --- | --- | --- | --- | --- | --- | --- |
| O=S1(=O)C(c2c(Cl)cc(Cl)nc2Cl)=C(O)c2ncccc2N1CC(F)F [Inhibitor 2, 1-(2,2-difluoroethyl)-2,2-dioxo-3-(2,4,6-trichloro-3-pyridyl)pyrido[3,2-c]thiazin-4-ol] | 3.8 | 1 | 4 | 17.1 | 0.5 | 3 |
| CC1=NOC(c2c(Cl)ccc(C3=C(O)c4ncccc4N(CC(F)F)S3(=O)=O)c2Cl)C1 (stereo not drawn) [Inhibitor 1, 3-[2,4-dichloro-3-(3-methyl-4,5-dihydroisoxazol-5-yl)phenyl]-1-(2,2-difluoroethyl)-2,2-dioxo-pyrido[3,2-c]thiazin-4-ol] | 2.4 | 1 | 3 | 40.1 | 2.6 | 2.5 |
